# Measurements as given in article PMC5872333, “Antifungal Potential of Host Defense Peptide Mimetics in a Mouse Model of Disseminated Candidiasis” (Journal of Fungi, 2018).
# Read-outs that look alike come from different tables or passages of the source.
# Legend:
# C. albicans SC5314 = test: Immunosuppressed mouse model of invasive candidiasis, kidney burden; assay type: in vivo, CD-1 mice; conditions: 20 mg/kg by gavage 2 h after infection, 24 h, average of four independent experiments
# Description: C. albicans SC5314 were grown in YPD broth (Difco laboratories, Detroit, MI, USA) and stock cultures were stored at −80 °C. The frozen stocks were first grown on YPD plates and kept at 4 °C. Prior to each experiment, a stock inoculum suspension of Candida was prepared in YPD broth and incubated at 30 °C with shaking at 200 rpm for 12 h. The culture was washed twice with sterile 1X phosphate buffered saline (PBS), counted with a hemocytometer, and diluted with PBS to get the desired concentration of 3.5 × 10^5 cfu/mL. 100 µL was injected intravenously (IV) into each mouse via the tail vein. […]
# Male CD-1 mice, 6–8 weeks old (20–22 g), were made neutropenic with two intraperitoneal (IP) injections of 150 mg/kg in 10 mL/kg cyclophosphamide four days and one day before inoculation. […] 2 h after C. albicans inoculation, mimetic compounds were injected subcutaneously (SC) at 0.5X of the MTD (determined by […] as described). Fluconazole (20 mg/kg) was administered to another group by oral gavage at 2 h post inoculation, as a positive control for the experiments, to confirm the ability to quantify an effect on kidney burden. […] Serial dilutions of the tissue homogenates were conducted, 0.1 mL aliquots were spread on YPD agar plates, and the plates incubated at 35 °C overnight. cfu/g kidneys were determined from colony counts. […]
# [1] = test system: Candida albicans, strain SC5314; test: MIC/MFC, CLSI broth microdilution, C. albicans; assay type: cell-based
# Description: (§1) A standard invasive candidiasis strain of C. albicans SC5314 was used for peptide mimetic compounds screening. Non-albicans Candida species (NAC) C. dubliniensis (NCPF3949), C. glabrata (ATCC 90030), C. krusei (ATCC 6258), C. parapsilosis (ATCC 22019) and C. tropicalis (ATCC 750) (obtained from the laboratory of David Perlin, PHRI/Rutgers), were cultured on YPD (1% yeast extract, 2% peptone, 2% dextrose, pH 5.7) agar at 37°C and were used for all experimental studies. Fluconazole resistant clinical isolates of C. glabrata from five different patients and C. tropicalis from one patient were collected from the clinical microbiology laboratory, Shands Hospital, University of Florida, Gainesville, FL, USA.
# (§2) Candida albicans […], NAC species and fluconazole-resistant clinical isolates of invasive candidiasis strains of C. glabrata and C. tropicalis were used for minimum inhibitory concentration (MIC) and minimum fungicidal concentration (MFC) studies of lead compounds. MICs were determined using the Clinical and Laboratory Standards Institute (CLSI) standard broth microdilution method. Suspensions of C. albicans were prepared by measuring optical density at 595 nm (OD595) of 1.0 in phosphate buffered saline (PBS). HDP mimetic compounds were diluted in 50 µL RPMI/MOPS cell culture medium in a 96-well plate (tissue culture treated; Costar, Corning Incorporated, Corning, NY, USA). To each well, a suspension (50 µL) of Candida was added, and then plate was incubated at 37 °C in a humidified chamber for a period of 24 h. To determine the MFC, a sample (100 µL) from the well defined as having the MIC and the wells with other three higher concentrations were plated onto YPD agar. Candida colonies were observed after 24 h. The MFC is defined as the lowest concentration of compound at which no colonies are observed. All MIC and MFC assays were performed in duplicate.
# [2] = test system: C. parapsilosis (ATCC 22019); test: MIC broth microdilution, C. parapsilosis; assay type: cell-based, Candida parapsilosis; conditions: Lodderomyces parapsilosis, ATCC22019; read-out: NAC species MIC, C. parapsilosis
# Description: as §1, §2
# [3] = test system: C. dubliniensis (NCPF3949); test: MIC broth microdilution, C. dublinensis; assay type: cell-based; conditions: Candida dubliniensis, read-out: NAC species MIC, C. dublinensis
# Description: as §1, §2
# C. glabrata (ATCC 90030) = test: MIC broth microdilution, C. glabrata; assay type: cell-based, Candida glabrata; conditions: Nakaseomyces glabratus, ATCC90030; read-out: NAC species MIC, C. glabrata
# Description: as §1, §2
# whole human blood = test: Hemolysis assay; assay type: cell-based; conditions: 0.5 h, 30 min, 37 °C
# Description: Peptide mimetic compounds were tested in duplicate using a hemolysis assay previously published. Briefly, two-fold serial dilutions starting at 2 mg/mL in 150 mM NaCl (saline), 20% DMA (Alfa Aesar, Ward Hill, MA, US), or 10% kleptose in saline. 3% saponin (Fluka) in saline was used as a positive control. Each dilution of each compound (25 µL) was plated in a 96-well round bottomed plate and 25 µL of whole human blood (BIORECLAMATION, Westbury, NY, USA) was added to each sample and mixed for 10 second. The blood was Type O, from 2 males and 2 females, collected with potassium EDTA to prevent clotting. Plates were incubated on a shaker for 30 min at 37 °C, then centrifuged at 600× g for 5 min. 5 µL of the supernatant was transferred to a 96-well flat-bottomed plate with 200 µL H2O in each well and mixed for 5 min. Absorbance was read at 405 nm (Spectramax 250, Molecular Devices, San Jose, CA, USA). Percent hemolysis was then calculated as:
# P = (OD405 (PMX compound) – OD405 (control))/(OD405 (Saponin) – OD405 (control))
# Curves were fitted to report an HC50 (50% hemolysis) value for each compound: […]
# [4] = Maximum tolerated dose (MTD) determination; conditions: mouse, in vivo, sc
# Description: Female CD-1 mice (Charles River Laboratories), 8–10 weeks old, >20 g were used to determine the MTD. Mice were housed individually in stainless steel, wire-bottom cages to minimize access to urine and feces and fed Harlan Teklad Certified Global Diet® with tap water ad libitum. Mice were acclimated to the study room at least 3 days prior to dosing. Mice (3 per group) were dosed with a subcutaneous (SC) bolus injection beginning with 10 mg/kg of the test compound at a concentration of 2 mg/mL. Doses were lowered two-fold for subsequent groups to find the MTD. The dose volume was […], calculated using the weight of the animal on the day of injection. There were 3 dose events, with 2 days between each event. […] Body weights were obtained daily until the day of euthanization with a CO2 overdose. Any mortality during the study was also recorded. MTD data were obtained by Ricerca Biosciences, LLC, Concord, OH, USA. MTD of each HDP mimetic in CD-1 mice was determined and our studies utilized doses beginning with 0.5X MTD.
# C. krusei (ATCC 6258) = test: MIC broth microdilution, C. krusei; assay type: cell-based, Candida krusei; conditions: Pichia kudriavzevii, ATCC6258; read-out: NAC species MIC, C. krusei
# Description: as §1, §2
# [5] = Mammalian cell cytotoxicity, MTS viability assay, 3T3; assay type: cell-based; conditions: mouse, 3T3 fibroblasts (ATCC CRL-1658), 3T3 cells, 1 h exposure without serum
# Description: Cytotoxicity (50% effective concentration (EC50)) was determined against mouse 3T3 fibroblasts (ATCC CRL-1658), OKF6/TERT-1 cells (oral keratinocytes), and human transformed liver HepG2 cells (ATCC HB-8065), using an MTS viability assay (Promega, Fitchburg, WI, USA). Growth medium was replaced with medium without serum, and eight 2-fold dilutions of compound were added. Following incubation for 1 h at 37 °C, compounds were removed, and medium containing serum was returned. Viability was determined using an MTS viability assay (CellTiter 96 aqueous nonradioactive cell proliferation assay, Promega).
# C. albicans [6] = test: Yeast membrane permeability, propidium iodide incorporation (flow cytometry); assay type: cell-based, Candida albicans
# Description: C. albicans was suspended in RPMI/MOPS media to a total concentration of 2 × 10^6 cfu/mL. One ml aliquots of the C. albicans suspension were treated with each mimetic compound at a concentration of 32 µg/mL, using 95% ethanol as positive control. Samples were incubated with the mimetics at 30 °C for 0, 5, 15 and 30 min. After treatment, samples were centrifuged at 5000 rpm for 5 min. Supernatants were removed and pellets were washed twice with 1 mL of PBS. […] Samples were analyzed by flow cytometry (FACSCalibur, Becton Dickinson, Immunocytometry Systems, San Jose, CA, USA) to assess percent uptake of PI.
# C. tropicalis (ATCC 750) = test: MIC broth microdilution, C. tropicalis; assay type: cell-based; conditions: Candida tropicalis, ATCC750; read-out: NAC species MIC, C. tropicalis
# Description: as §1, §2
# C. albicans [7] = test: MIC assay in the presence of CaCl2 (divalent cation inhibition); assay type: cell-based; conditions: Candida albicans, 2.5 mM CaCl2
# Description: as §2, with “The MFC is defined as the lowest concentration of compound at which no colonies are observed. All MIC and MFC assays were performed in duplicate.” left out
# To assess the effect of a divalent cations on the electrostatic interaction between mimetics and cell membrane of yeast, we used calcium chloride at concentrations of 2, 5, 7.5 and 10 […]. […] At each concentration of this cation, the MIC of mimetics were determined by the method described above.
# [8] = C. albicans SC5314, without human serum, 24 h, read-out: MIC
# [9] = C. albicans SC5314, 50% human serum, read-out: MIC+50% Human serum
# [10] = C. albicans SC5314, without human serum
# [11] = 32 µg/mL HDP mimetic, C. albicans
SMILES,log10 reduction in kidney cfu (C. albicans SC5314) [log],"MIC [1, 8] [µg/mL]",MIC [2] [µg/mL],MIC [3] [µg/mL],MIC (C. glabrata (ATCC 90030)) [µg/mL],"MIC [1, 9] [µg/mL]","MFC [1, 10] [µg/mL]",EC50 (whole human blood) [mM],MTD [4] [mg/kg free base],MIC (C. krusei (ATCC 6258)) [µg/mL],EC50 at 1 h [5] [µM],"rate of membrane activity (PI incorporation) (C. albicans [6]; 32 µg/mL HDP mimetic, C. albicans, comparison among compounds)",MIC (C. tropicalis (ATCC 750)) [µg/mL],"PI entered the cell (C. albicans [6]; positive control, within 7 min) [%]",MIC (C. albicans [7]) [µg/mL],time to maximum incorporation of PI (C. albicans [6]; [11]) [min]
"OC(Cn1cncn1)(Cn1cncn1)c1ccc(F)cc1F [Fluconazole, fluconazole, reference compound]",3,0.25,–,–,–,–,–,–,–,–,–,–,–,–,–,–
NCCCOc1cc(OCCCN)cc(-c2ccc3c(c2)c2cc(-c4cc(OCCCN)cc(OCCCN)c4)ccc2n3CCCN)c1 [Compound 4],–,4,2,4,2,4,8,> 1.17,20,16,436,most rapid membrane activity,2 to 4,–,–,–
"CCO [95% ethanol, ethanol, reference compound]",–,–,–,–,–,–,–,–,–,–,–,–,–,100,–,–
N=C(N)NCCCc1cc(CCCNC(=N)N)cc(NC(=O)c2ccc(C(=O)Nc3cc(CCCNC(=N)N)cc(CCCNC(=N)N)c3)cc2)c1 [Compound 2],–,4,1,32,8,4,16,> 1.16,10,8,358,–,8,–,> 60,30
N=C(N)N1CCN(c2ccc(-c3cc(-c4ccc(N5CCN(C(=N)N)CC5)cc4)ncn3)cc2)CC1 [Compound 1],–,4,4 to 8,8,4,4,8,> 1.79,10,32,311,–,4 to 8,–,–,30
